Assay results as given in patent publication US10858365B2, “Triazolo-pyrimidine compounds and uses thereof” (Dizal (Jiangsu) Pharmaceutical Co., Ltd., priority 2018, dated 2020).

Tests used:
hA2a [1] = target: T1, hA2a (Homo sapiens (Human), UniProt P29274); experiment: cAMP inhibition assay in hA2a/CHO cells; format: cell-based; conditions: adenosine stimulation, read-out: cAMP & FLIPR IC50 (nM) hA2a
Outline: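 CHO cells expressing human A2a, human A2b or mouse A2a, 5×10^3 cells/well, pre-incubated with compound 30 min at 37 °C, then stimulated with […] adenosine 30 min at 37 °C. cAMP read after 60 min room-temperature incubation with detection reagent.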

hA1 [2] = target: T2, hA1 (Homo sapiens (Human), UniProt P30542); experiment: Radioligand binding to hA1 membrane ([3H]-DPCPX); conditions: 50 min at 25° C., read-out: Binding Affinity (IC50 nM) hA1
Procedure: (§1) Binding affinity and specificities of the compounds against different subtype of human adenosine receptors (hA1, hA2A, hA2B and hA3) were characterized with cell membrane chromatography binding analysis.
(§2) The compounds at different concentrations were incubate with hA1 membrane (from PerkinElmer) and [^3H]-8-Cyclopentyl-1,3-dipropylxanthine (DPCPX) for 50 min at 25° C., meanwhile 100 μL 0.5% PEI solution was added into […]-96 GF/B filter plate for 60 min at 4° C., then […]-96 GF/B filter plate was washed twice with 50 ml wash buffer, the membrane mix was transferred into […]-96 GF/B filter plate, and the filter plate was washed 4 times before incubated at 55° C. for 10 min. At last, […] ULTIMA GOLD was added into each well, and CPM was read by TopCount.
(§3) The empty boxes in the tables below indicate data not available.

hA2b [3] = target: T3, hA2b (Homo sapiens (Human), UniProt P29275); experiment: Radioligand binding to hA2b membrane ([3H]-DPCPX); conditions: 60 min at 27° C., read-out: Binding Affinity (IC50 nM) hA2b
Procedure: as §1
(§4) The compounds at different concentrations were incubate with hA2b membrane (from PerkinElmer) and [^3H]-DPCPX for 60 min at 27° C., and the binding reactions were stopped by rapid filtration through 0.5% BSA coated […]-96 GF/C plates using cell harvester. The filter plates were then washed three times with ice cold wash buffer, and dried at 37° C. for 120 min. At last, 50 µL of scintillation cocktail was added into each well, and CPM was read by TopCount.
as §3

mA2a = mA2a (Mus musculus (Mouse), UniProt Q60613); experiment: cAMP inhibition assay in mA2a/CHO cells; format: cell-based; conditions: adenosine stimulation, read-out: cAMP & FLIPR IC50 (nM) mA2a
Procedure: (§5) hA2a/CHO, hA2b/CHO and mA2a/CHO (Genscript) were plated at 5×10^3 cells/well into 384-well polystyrene plates at the day of experiment. Compounds were pre-incubated with cells for 30 min at 37° C., 5% CO2. Then […] adenosine was added to the cells and incubated for 30 min at 37° C., 5% CO2. Detection reagent (CISBIO) was added and the plates were incubated for 60 min at room temperature. The signal was captured by Envision.

hA2b [4] = target: T3, hA2b; experiment: cAMP inhibition assay in hA2b/CHO cells; format: cell-based; conditions: adenosine stimulation, read-out: cAMP & FLIPR IC50 (nM) hA2b
Procedure: as §5

hA3 [5] = target: T4, hA3 (Homo sapiens (Human), UniProt P0DMS8); experiment: Radioligand binding to hA3 membrane (AB-MECA radioligand); conditions: 60 min at 27° C., read-out: Binding Affinity (IC50 nM) hA3
Procedure: as §1
as §4, with “hA3” for “hA2b”, “[…]” for “[^3H]-DPCPX”, “C.,” for “C., and”, “0.50%” for “0.5%”
as §3

hA1 [6] = target: T2, hA1; experiment: FLIPR inhibition assay in hADORA1/CHO (hA1 expressing) cells; format: cell-based; conditions: hADORA1/CHO cells, FLIPR calcium, adenosine stimulation; read-out: cAMP & FLIPR IC50 (nM) hA1
Outline: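 CHO cells expressing human A1 were plated at 1×10^4 cells/well the day before, then loaded with FLIPR Calcium 5 dye for 60 min at 37 °C, 5% CO2. Compounds were added at several concentrations for 400 s before stimulation with […] adenosine. The calcium signal was recorded by FLIPR.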

hA2a [7] = target: T1, hA2a; experiment: Radioligand binding to hA2a membrane ([3H]-CGS21680); conditions: [3H]-CGS21680, 90 min at 25° C., read-out: Binding Affinity (IC50 nM) hA2a
Procedure: as §1
as §2, with “with hA2a” for “with hA1”, “and [^3H]-CGS21680” for “and [^3H]-8-Cyclopentyl-1,3-dipropylxanthine (DPCPX)”, “for 90” for “for 50”
as §3

hA3 [8] = target: T4, hA3; experiment: cAMP & FLIPR inhibition, hA3 over-expressing cell line; format: cell-based
Text: FLIPR™ and cAMP inhibition activities of exemplary compounds in different adenosine receptor over-expressing cell lines are shown in Table 4 below.

T3 sequence (P29275 whole entry): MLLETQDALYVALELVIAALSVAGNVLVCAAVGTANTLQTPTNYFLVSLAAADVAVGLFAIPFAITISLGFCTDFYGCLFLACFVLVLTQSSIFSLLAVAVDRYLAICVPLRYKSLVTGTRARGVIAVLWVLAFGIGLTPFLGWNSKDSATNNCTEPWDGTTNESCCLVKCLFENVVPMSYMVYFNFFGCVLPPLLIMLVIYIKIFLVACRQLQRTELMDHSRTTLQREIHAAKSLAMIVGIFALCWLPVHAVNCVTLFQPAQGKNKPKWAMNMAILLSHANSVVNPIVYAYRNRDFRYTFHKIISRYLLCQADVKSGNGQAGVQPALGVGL
T2 sequence (P30542 whole entry): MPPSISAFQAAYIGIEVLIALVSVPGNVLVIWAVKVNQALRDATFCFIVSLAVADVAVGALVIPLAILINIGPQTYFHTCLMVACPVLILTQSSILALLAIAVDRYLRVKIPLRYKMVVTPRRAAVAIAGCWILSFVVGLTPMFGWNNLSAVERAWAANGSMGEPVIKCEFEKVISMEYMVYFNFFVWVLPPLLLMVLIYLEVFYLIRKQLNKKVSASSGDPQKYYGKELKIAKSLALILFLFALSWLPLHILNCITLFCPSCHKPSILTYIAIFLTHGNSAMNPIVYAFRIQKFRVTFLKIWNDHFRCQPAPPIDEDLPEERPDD
T1 sequence (P29274 whole entry): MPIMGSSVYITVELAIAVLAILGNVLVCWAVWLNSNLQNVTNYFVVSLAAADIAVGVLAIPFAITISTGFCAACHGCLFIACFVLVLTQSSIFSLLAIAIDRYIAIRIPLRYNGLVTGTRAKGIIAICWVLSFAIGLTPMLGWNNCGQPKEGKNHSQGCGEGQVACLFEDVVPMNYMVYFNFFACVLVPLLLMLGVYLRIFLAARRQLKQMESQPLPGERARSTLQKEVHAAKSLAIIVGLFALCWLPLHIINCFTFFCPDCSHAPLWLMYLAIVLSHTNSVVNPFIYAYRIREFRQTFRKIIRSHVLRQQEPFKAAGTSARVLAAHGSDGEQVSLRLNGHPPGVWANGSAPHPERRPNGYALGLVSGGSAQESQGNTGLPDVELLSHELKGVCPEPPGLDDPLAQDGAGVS
T4 sequence (P0DMS8 whole entry): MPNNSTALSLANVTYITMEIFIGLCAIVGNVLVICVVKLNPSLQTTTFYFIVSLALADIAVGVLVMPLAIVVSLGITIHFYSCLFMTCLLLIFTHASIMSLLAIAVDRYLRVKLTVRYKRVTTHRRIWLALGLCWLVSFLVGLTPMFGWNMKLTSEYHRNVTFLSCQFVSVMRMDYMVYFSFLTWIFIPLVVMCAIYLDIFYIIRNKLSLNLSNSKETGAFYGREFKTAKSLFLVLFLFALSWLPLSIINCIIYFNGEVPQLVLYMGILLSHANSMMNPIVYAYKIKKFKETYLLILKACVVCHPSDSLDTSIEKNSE
Chain of mA2a (Q60613 whole entry): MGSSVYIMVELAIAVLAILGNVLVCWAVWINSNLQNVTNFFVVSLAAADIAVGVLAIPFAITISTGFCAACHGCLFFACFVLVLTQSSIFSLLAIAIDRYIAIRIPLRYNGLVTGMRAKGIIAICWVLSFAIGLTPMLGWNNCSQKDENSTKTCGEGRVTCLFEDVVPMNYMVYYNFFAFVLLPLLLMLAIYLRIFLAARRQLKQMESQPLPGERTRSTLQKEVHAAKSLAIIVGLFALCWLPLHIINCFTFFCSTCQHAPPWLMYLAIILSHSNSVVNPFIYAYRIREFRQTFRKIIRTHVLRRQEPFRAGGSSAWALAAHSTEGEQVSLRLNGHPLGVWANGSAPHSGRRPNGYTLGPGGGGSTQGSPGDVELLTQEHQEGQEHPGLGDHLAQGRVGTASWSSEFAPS

Row | Compound | IC50 (hA2a [1]) | IC50 (hA1 [2]) | IC50 (hA2b [3]) | IC50 (mA2a) | IC50 (hA2b [4]) | IC50 (hA3 [5]) | IC50 (hA1 [6]) | IC50 (hA2a [7]) | IC50 (hA3 [8])
1 | Cn1cc(-c2c(-c3ccc(F)cc3)nc(N)n3nc(Cc4ncccc4OC(F)F)nc23)ccc1=O [Example 20, 5-(5-amino-2-[[3-(difluoromethoxy)pyridin-2-yl]methyl]-7-(4-fluorophenyl)-[1,2,4]triazolo[1,5-c]pyrimidin-8-yl)-1-methyl-1,2-dihydropyridin-2-one] | 3.5 nM | 4 nM | 8.7 nM | 4.9 nM | 84 nM | 1070 nM | 34 nM | 2.8 nM | > 10000 nM
2 | Cn1cc(-c2c(-c3ccc(F)cc3)nc(N)n3nc(Cc4ncccc4F)nc23)ccc1=O [Example 1, 5-(5-amino-7-(4-fluorophenyl)-2-((3-fluoropyridin-2-yl)methyl)-[1,2,4]triazolo[1,5-c]pyrimidin-8-yl)-1-methylpyridin-2(1H)-one] | 4.7 nM | 1.1 nM | 2.3 nM | 10 nM | 117 nM | 2870 nM | 8.5 nM | 2.3 nM | > 10000 nM
